Series [1] has as its system stretch-induced cardiomyocyte hypertrophy. More on the design: method as in Välimäki et al. [2017]. Conditions: ref Välimäki et al. [2017]; cited from earlier work.
For the next series, the system named is cardiac function. More on the design: method as in Kinnunen et al. [2018]. Conditions: after myocardial infarction or angiotensin II-induced cardiac hypertrophy; ref Kinnunen et al. [2018]; cited from earlier work.
In another series the test system is NRVCs. More on the design: method as in Välimäki et al. [2017]. Conditions: concentrations up to 50 µM; ref Välimäki et al. [2017]; cited from earlier work.
For the next series, the system named is hiPSC-CMs. As to the kind of experiment: MTT assay in hiPSC-CMs. The class given is cell-based, human. Conditions: 24 h. The protocol: The cells were exposed to the test compounds for 24 h and cytotoxicity was quantified with MTT and LDH assays as described previously (Talman et al. [2011]). For the determination of cell membrane integrity, 50 µl of medium from each well was transferred onto a new 96-well plate followed by addition of 50 µl of substrate solution containing 1.3 mM β-nicotinamide adenine dinucleotide, 660 µM iodonitrotetrazolium, 54 mM L(+)-lactic acid, 280 µM phenazine methosulphate and 0.2 M Tris–HCl (pH 8.0). After a 30-min incubation, the reaction was stopped by adding 50 µl of 1 M acetic acid to each well and absorbance was measured at 490 nm using Victor2 plate reader (PerkinElmer, Turku, Finland). Spontaneous LDH release was measured from untreated cells, maximal LDH release from cells lysed with 0.9% Triton X-100 and background absorbance was measured from wells without cells. After background extraction, cytotoxicity was calculated as follows: cytotoxicity (%) = [(sample − spontaneous LDH release)/(maximal LDH release − spontaneous LDH release)] × 100. For quantification of metabolic activity, 3-(4,5-dimethylthiazol-2-yl)-2,5-diphenyltetrazolium bromide (MTT) was added to the cells at a final concentration of 0.5 mg/ml followed by 2 h incubation in cell culture conditions. […] Absorbance was measured at 550 nm and absorbance at 650 nm was subtracted as background. […]
A general note: Formazan colour is commonly taken as a measure of viable cells.

Data on two compounds can be found in article PMC6132687, “Stem cells are the most sensitive screening tool to identify toxicity of GATA4-targeted novel small-molecule compounds” (Archives of Toxicology, 2018).

For `CCN(CC)c1ccc(NC(=O)c2c(-c3ccccc3)noc2C)cc1` [3i-1000], the stretch-induced cardiomyocyte hypertrophy entry in series [1] is recorded as “attenuates”. For the same compound, the cardiac function result in the series with cardiac function is on record as “improves cardiac function”. Moreover, the “toxicity in NRVCs” value in the series on NRVCs is recorded as “no toxicity”.

As to `CCN(CC)c1ccc(NC(=O)c2c(C)noc2-c2cc(C)on2)cc1` [3i-1047], in the series on hiPSC-CMs, the “increase in hiPSC-CM metabolic activity” value was determined as 51%.
